From patent publication US10485235B2, “Aryloxypyrimidinyl ethers as herbicides” (FMC Corporation, priority 2015, dated 2019)

Key:
Format in all cases: in vivo
[1] = system: barnyardgrass (Echinochloa crus-galli); test: Test A postemergence, barnyardgrass; conditions: Echinochloa crus-galli, post-emergence, 240 h, postemergence, 0 to 100 scale, 0 is no effect, 100 is complete control, approximately 10 days, read-out: Plant response rating, Barnyardgrass; for pest or weed control at 125 g/ha: 125 g ai/ha
How it was run: (§1)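 Pre- and postemergence greenhouse screen in loam–sand soil. Test chemicals were delivered in a non-phytotoxic solvent with surfactant, preemergence as a directed spray onto seeded soil and postemergence onto 2–10 cm seedlings. Injury was judged by eye after ~10 days on a 0–100 scale.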

[2] = system: ragweed (common ragweed, Ambrosia elatior); test: Test A postemergence, ragweed; conditions: Ambrosia artemisiifolia, post-emergence, 240 h, postemergence, 0 to 100 scale, 0 is no effect, 100 is complete control, approximately 10 days, read-out: Plant response rating, Ragweed; for pest or weed control at 125 g/ha: 125 g ai/ha
How it was run: as §1

corn (Zea mays) = test: Test A postemergence, corn; conditions: Zea mays, post-emergence, 240 h, postemergence, 0 to 100 scale, 0 is no effect, 100 is complete control, approximately 10 days; for Corn plant response rating (crop injury, 0 = no effect, 100 = complete kill) at 125 g/ha: 125 g ai/ha
How it was run: as §1

[3] = system: barnyardgrass (Echinochloa crus-galli); test: Test B flooded paddy test, barnyardgrass; conditions: Echinochloa crus-galli; 250 g ai/ha, Flood; visual rating after 13 to 15 days; scale 0 to 100, 0 is no effect, 100 is complete control; read-out: Plant response rating, Barnyardgrass
How it was run: (§2)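 Visual ratings, 0 = no effect to 100 = complete control, versus controls after 13 to 15 days in greenhouse. Test compounds were added to paddy water kept 3 cm over the soil surface, on plants at 2-leaf stage.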

[4] = system: foxtail, giant (giant foxtail, Setaria faberii); test: Test A preemergence, giant foxtail; conditions: Setaria faberi, pre-emergence, 240 h, Preemergence, 0 to 100 scale (0 no effect, 100 complete control), read-out: Plant response rating, Foxtail, Giant; for pest or weed control at 125 g/ha: 125 g ai/ha
How it was run: as §1

[5] = system: foxtail, giant (giant foxtail, Setaria faberii); test: Test A postemergence, giant foxtail; conditions: Setaria faberi, post-emergence, 240 h, postemergence, 0 to 100 scale, 0 is no effect, 100 is complete control, approximately 10 days, read-out: Plant response rating, Foxtail, Giant; for pest or weed control at 125 g/ha: 125 g ai/ha
How it was run: as §1

rice (Oryza sativa) = test: Test B flooded paddy test, rice; conditions: Oryza sativa; 250 g ai/ha, Flood; visual rating after 13 to 15 days; scale 0 to 100, 0 is no effect, 100 is complete control; read-out: Plant response rating, Rice
How it was run: as §2

[6] = system: galium (catchweed bedstraw, Galium aparine); test: Test A postemergence, galium; conditions: Galium, post-emergence, 240 h, postemergence, 0 to 100 scale, 0 is no effect, 100 is complete control, approximately 10 days, read-out: Plant response rating, Galium; for pest or weed control at 125 g/ha: 125 g ai/ha
How it was run: as §1

[7] = system: blackgrass (Alopecurus myosuroides); test: Test A postemergence, blackgrass; conditions: Alopecurus myosuroides, post-emergence, 240 h, postemergence, 0 to 100 scale, 0 is no effect, 100 is complete control, approximately 10 days, read-out: Plant response rating, Blackgrass; for pest or weed control at 125 g/ha: 125 g ai/ha
How it was run: as §1

kochia (Kochia scoparia) [8] = test: Test A preemergence, kochia; conditions: Bassia scoparia, pre-emergence, 240 h, Preemergence, 0 to 100 scale (0 no effect, 100 complete control), read-out: Plant response rating, Kochia; for pest or weed control at 125 g/ha: 125 g ai/ha
How it was run: as §1

[9] = system: ryegrass, Italian (Italian ryegrass, Lolium multiflorum); test: Test A preemergence, Italian ryegrass; conditions: Lolium multiflorum, pre-emergence, 240 h, Preemergence, 0 to 100 scale (0 no effect, 100 complete control), read-out: Plant response rating, Ryegrass, Italian; for pest or weed control at 125 g/ha: 125 g ai/ha
How it was run: as §1

kochia (Kochia scoparia) [10] = test: Test A postemergence, kochia; conditions: Bassia scoparia, post-emergence, 240 h, postemergence, 0 to 100 scale, 0 is no effect, 100 is complete control, approximately 10 days, read-out: Plant response rating, Kochia; for pest or weed control at 125 g/ha: 125 g ai/ha
How it was run: as §1

[11] = system: ragweed (common ragweed, Ambrosia elatior); test: Test A preemergence, ragweed; conditions: Ambrosia artemisiifolia, pre-emergence, 240 h, Preemergence, 0 to 100 scale (0 no effect, 100 complete control), read-out: Plant response rating, Ragweed; for pest or weed control at 125 g/ha: 125 g ai/ha
How it was run: as §1

[12] = system: sedge, umbrella (small-flower umbrella sedge, Cyperus difformis); test: Test B flooded paddy test, umbrella sedge; conditions: Cyperus difformis; 250 g ai/ha, Flood; visual rating after 13 to 15 days; scale 0 to 100, 0 is no effect, 100 is complete control; read-out: Plant response rating, Sedge, Umbrella
How it was run: as §2

[13] = system: wheat (Triticum aestivum); test: Test A postemergence, wheat; conditions: Triticum aestivum, post-emergence, 240 h, postemergence, 0 to 100 scale, 0 is no effect, 100 is complete control, approximately 10 days, read-out: Plant response rating, Wheat; for plant injury at 125 g/ha: 125 g ai/ha
How it was run: as §1

Row | SMILES | pest or weed control at 125 g/ha [1] [%] | pest or weed control at 125 g/ha [2] [%] | Corn plant response rating (crop injury, 0 = no effect, 100 = complete kill) at 125 g/ha (corn (Zea mays)) [%] | pest or weed control at 250 g/ha [3] [%] | pest or weed control at 125 g/ha [4] [%] | pest or weed control at 125 g/ha [5] [%] | plant injury at 250 g/ha (rice (Oryza sativa)) [%] | pest or weed control at 125 g/ha [6] [%] | pest or weed control at 125 g/ha [7] [%] | pest or weed control at 125 g/ha (kochia (Kochia scoparia) [8]) [%] | pest or weed control at 125 g/ha [9] [%] | pest or weed control at 125 g/ha (kochia (Kochia scoparia) [10]) [%] | pest or weed control at 125 g/ha [11] [%] | pest or weed control at 250 g/ha [12] [%] | plant injury at 125 g/ha [13] [%] | other results
1 | N#Cc1cccc(Oc2ncc(Cl)cn2)c1OC/C=C/C(F)(F)F [Compound 8, 3-[(5-chloro-2-pyrimidinyl)oxy]-2-[[(2E)-4,4,4-trifluoro-2-buten-1-yl]oxy]benzonitrile] | 60 | 10 | 20 | 0 | 100 | 90 | 0 | 90 | 40 | 100 | 30 | 100 | 0 | 100 | 10 | pest or weed control at 31 g/ha ([1]; 31 g ai/ha): 20%; pest or weed control at 31 g/ha ([2]; 31 g ai/ha): 0%; Corn plant response rating (crop injury, 0 = no effect, 100 = complete kill) at 31 g/ha (corn (Zea mays); 31 g ai/ha): 10%; pest or weed control at 31 g/ha ([4]; 31 g ai/ha): 100%; pest or weed control at 31 g/ha ([5]; 31 g ai/ha): 20%; pest or weed control at 31 g/ha ([6]; 31 g ai/ha): 40%; pest or weed control at 31 g/ha ([7]; 31 g ai/ha): 20%; pest or weed control at 31 g/ha (kochia (Kochia scoparia) [8]; 31 g ai/ha): 20%; pest or weed control at 31 g/ha ([9]; 31 g ai/ha): 0%; pest or weed control at 31 g/ha (kochia (Kochia scoparia) [10]; 31 g ai/ha): 80%; pest or weed control at 31 g/ha ([11]; 31 g ai/ha): 0%; plant injury at 31 g/ha ([13]; 31 g ai/ha): 0%
2 | Fc1cccc(Oc2ncc(Cl)cn2)c1OCC(F)(F)F [Compound 28] | 0 | 0 | 0 | 0 | 0 | 0 | 0 | 0 | 0 | 0 | 0 | 0 | 0 | 0 | 0 | pest or weed control at 500 g/ha ([1]; 500 g ai/ha): 20%; pest or weed control at 500 g/ha ([2]; 500 g ai/ha): 0%; Corn plant response rating (crop injury, 0 = no effect, 100 = complete kill) at 500 g/ha (corn (Zea mays); 500 g ai/ha): 10%; pest or weed control at 500 g/ha ([4]; 500 g ai/ha): 70%; pest or weed control at 500 g/ha ([5]; 500 g ai/ha): 20%; pest or weed control at 500 g/ha ([6]; 500 g ai/ha): 20%; pest or weed control at 500 g/ha ([7]; 500 g ai/ha): 20%; pest or weed control at 500 g/ha (kochia (Kochia scoparia) [8]; 500 g ai/ha): 20%; pest or weed control at 500 g/ha ([9]; 500 g ai/ha): 20%; pest or weed control at 500 g/ha (kochia (Kochia scoparia) [10]; 500 g ai/ha): 10%; pest or weed control at 500 g/ha ([11]; 500 g ai/ha): 0%; plant injury at 500 g/ha ([13]; 500 g ai/ha): 0%
